# Test results from patent US20240109917A1 (ACTELION PHARMACEUTICALS LTD, priority 2020, published 2024).
# Where two headings read alike, the source gives them in different places.
# Key:
# [1] = molecular target: VEGFR2, unphosphorylated (Homo sapiens (Human), UniProt P35968); assay: VEGFR ADP GLO Assay; type: biochemical
# Description: (§1) II. Methods and Procedures
# Assay buffer stock contains 50 mM HEPES pH7.5, 10 mM MgCl2, 0.01% Brij-35, and 1 mM EGTA.
# Unphosphorylated VEGFR2. […] Store at −80° C. in aliquots.
# Sonicate 10 mg/ml Srctide solution for 10 minutes and then vacuum filter.
# Freshly Prepared Solutions
# 2× kinase solution. Make a working solution of 10 nM unphosphorylated VEGFR2 in Assay buffer. Vacuum filter 2× kinase solution prior to running assay. Keep on ice until use.
# 2× substrate/ATP solution. Make a working solution of 2 mg/mL srctide and 2.4 mM ATP in Assay buffer. Keep on ice until use.
# Step 1. Dispensing inhibitors/controls: Using Echo, dispense 10 nL/well compound serial dilutions in DMSO to columns 1-22 (in 384-well plates) or columns 1-44 (in 1536-well plates). Dilution series=11 pt, 3-fold dilutions. The top compound concentration in the source plate is 4 mM. The top compound concentration in the assay plate is 10 uM. Using Echo, dispense 10 nl/well DMSO to column 23 (in 384-well plates) or columns 45-47 (in 1536-well plates). […] These wells will serve as positive control wells.
# Step 2. Pre-incubation of inhibitors with kinase: Add 2 μL/well 2× kinase solution. Centrifuge at 1000 rpm for 1 min. Incubate at room temperature for 30 min.
# Step 3. Kinase cascade reaction: Add 2 μL/well 2× substrate/ATP solution to initiate kinase reactions. Centrifuge at 1000 rpm for 1 min. Incubate at room temperature for 180 min.
# Final concentrations of components in the assay:
# Step 4. Quench: Add 2 uL/well ADP Glo Reagent+0.05% CHAPS. Centrifuge at 1000 rpm for 1 min; Incubate at room temperature for one hour.
# Step 5. Detection: Add 2 uL/well Kinase Detection Reagent+0.05% CHAPS. Centrifuge at 1000 rpm for 1 min; Incubate at room temperature for 1 hour; Read Luminescence on a plate reader.
# (§2) III. Calculations and Formulas
# IC50 values are determined from a 4-parameter fit, using the following equation: Y=Bottom+(Top−Bottom)/(1+10^(Log IC50-X)*Hill slope) where X=log10 of the compound concentration; top can be defined by PC; bottom defined by NC.
# [2] = molecular target: His6-TEV-PDGFRβ (557-1016) (Homo sapiens (Human), UniProt P09619); assay: PDGFRβ HTRF Assay; type: biochemical; conditions: read-out: PDGFR HTRF IC50
# Chain of His6-TEV-PDGFRβ (557-1016) (P09619 557-1016): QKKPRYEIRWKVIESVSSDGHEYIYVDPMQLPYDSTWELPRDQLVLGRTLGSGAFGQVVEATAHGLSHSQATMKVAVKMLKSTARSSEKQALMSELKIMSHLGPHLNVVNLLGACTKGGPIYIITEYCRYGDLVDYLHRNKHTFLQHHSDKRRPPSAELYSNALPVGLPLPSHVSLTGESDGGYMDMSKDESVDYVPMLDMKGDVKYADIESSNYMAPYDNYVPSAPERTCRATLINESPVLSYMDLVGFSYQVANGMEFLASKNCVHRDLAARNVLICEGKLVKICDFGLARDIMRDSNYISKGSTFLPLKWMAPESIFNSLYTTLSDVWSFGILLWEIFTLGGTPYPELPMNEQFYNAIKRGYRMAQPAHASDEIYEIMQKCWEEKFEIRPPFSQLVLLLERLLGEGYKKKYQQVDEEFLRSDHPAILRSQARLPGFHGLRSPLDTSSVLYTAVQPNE
# Description: Instrumentation: a. Compound liquid handling: LabCyte Echo; b. Reagent liquid handling: Thermo Scientific Multidrop Combi; c. BMG PHERAStar multilabel plate reader.
# Protein Reagent: His6-TEV-PDGFRβ Protein Prep prepared at Accelagen.
# as §1
# Assay buffer stock solution, contains 50 mM Hepes, 10 mM MgCl2, 1 mM EGTA, and 0.01% Brij-35, 0.01% ovalbumin, 2 mM DTT at pH 7.5, in molecular biology grade water. Store at room temperature.
# DTT, 2 M in molecular biology grade water, store at −20° C. in aliquots.
# Ovalbumin, 10% or 100 mg/mL, prepare fresh on experimental day.
# PDGFRβ, 116 μM (PDGFRb_08 Prep 02), produced at Accelagen. Store at −80° C. in aliquots.
# TK-biotin peptide, […] in molecular biology grade water, store at −20° C. in aliquots.
# ATP, 100 mM in molecular biology grade water, store at −20° C. in aliquots.
# HTRF KinEASE-TK kit: Allow the contents of the Cisbio kit to warm up to room temperature before use. This kit contains HTRF detection buffer, TK-Antibody labeled with Eu^3+-cryptate, TK-substrate biotin and Streptavidin-XL665.
# TK Substrate-Biotin, reconstitute 500 μg lyopholized with 574 μL molecular biology grade water to prepare a 500 μM stock; After use, aliquot the rest and store at −20° C.
# TK Antibody-Cryptate, reconstitute lyophilized with 1 mL of molecular biology grade water (100× solution) then add 99 mL detection buffer to prepare a ready to use TK-antibody-cryptate solution; the concentration of the TK-antibody-cryptate reagent is not known. After use, aliquot the rest and store at −20° C.
# Streptavidin-XL665, reconstitute 3 mg lyophilized with 3 mL molecular biology grade water to prepare a 1 mg/mL or 16.67 μM stock; MW=60 kDa; After use, aliquot the rest and store at −20° C.
# (§3) Freshly Prepared Solutions:
# Assay buffer. Dilute 5× Kinase buffer 5-fold with molecular biology grade water and add DTT to 2 mM and ovalbumin to 0.1 mg/mL (or 0.01%).
# 2× protein solution. Make a working solution of […] PDGFRβ in assay buffer. Keep on ice until use to maintain enzyme stability.
# 2× substrate solution. Make a working solution of 1.6 mM ATP and 1 μM TK-substrate biotin peptide in assay buffer.
# 3× quench/detection solution. Make a working solution of 0.1875 μM SA-XL665 and the TK-antibody cryptate diluted by 12 of total quench/detection volume in assay buffer.
# Keep final streptavidin/biotin ratio at 1 to 8.
# Example of 3× quench/detection solution preparation: 8 mL total volume.
# TK antibody-cryptate in detection buffer—4000 μL
# The kinase reaction is stopped by the addition of the detection reagents which contain EDTA (detection step).
# Assay in white ProxiPlate 384-well
# Step 1. Dispensing inhibitors/DMSO and low control: Using the ECHO 555 acoustic dispenser, spot desired compound serial dilutions in DMSO, NEAT DMSO to represent the uninhibited enzyme control, and 10 μM final [imatinib] to the represent the 100% inhibited enzyme control
# Step 2. PDGFRβ E+I pre-incubation: Add 2 μL 2× protein solution to columns 1-24 using the Multidrop Combi. Centrifuge at 1000 rpm for 1 min. Incubate 30 min at RT
# Step 2. Enzymatic reaction: Add 2 μL substrate solution to columns 1-24 to initiate the reaction using the Multidrop Combi; cover/seal the assay plate to reduce evaporation. Centrifuge at 1000 rpm for 1 min. Incubate at room temperature for 3 hours.
# Step 3. Quench/Detection: Add 2 μl 3× quench/detection solution to columns 1-24 using the Multidrop Combi; cover/seal the plate. Centrifuge 1 min 1000 rpm. Incubate at RT for 60 min. Read the plate in PHERAstar (or similar instrument) on HTRF setting at excitation 337 nm—dual emission—665/620 nm ratio.
# as §2
# HTRF ratio values calculated by the instrument (Ratio is acceptor counts/donor counts*10,000) is exported from the plate reader and used in data analysis. […] Assay statistics can include Robust Z′ and Signal to Background.
# % Inhibition Calculation: Percent inhibition will be calculated for sample wells based on the equation: […]
# [3] = molecular target: PDGFRβ (Rattus norvegicus (Rat), UniProt Q05030); assay: PDGFRβ Cellular Assay (PDGFRb P-Y751 HTRF in A10 cells stimulated with PDGF-BB); type: cell-based
# Chain of PDGFRβ (Q05030 32-1097): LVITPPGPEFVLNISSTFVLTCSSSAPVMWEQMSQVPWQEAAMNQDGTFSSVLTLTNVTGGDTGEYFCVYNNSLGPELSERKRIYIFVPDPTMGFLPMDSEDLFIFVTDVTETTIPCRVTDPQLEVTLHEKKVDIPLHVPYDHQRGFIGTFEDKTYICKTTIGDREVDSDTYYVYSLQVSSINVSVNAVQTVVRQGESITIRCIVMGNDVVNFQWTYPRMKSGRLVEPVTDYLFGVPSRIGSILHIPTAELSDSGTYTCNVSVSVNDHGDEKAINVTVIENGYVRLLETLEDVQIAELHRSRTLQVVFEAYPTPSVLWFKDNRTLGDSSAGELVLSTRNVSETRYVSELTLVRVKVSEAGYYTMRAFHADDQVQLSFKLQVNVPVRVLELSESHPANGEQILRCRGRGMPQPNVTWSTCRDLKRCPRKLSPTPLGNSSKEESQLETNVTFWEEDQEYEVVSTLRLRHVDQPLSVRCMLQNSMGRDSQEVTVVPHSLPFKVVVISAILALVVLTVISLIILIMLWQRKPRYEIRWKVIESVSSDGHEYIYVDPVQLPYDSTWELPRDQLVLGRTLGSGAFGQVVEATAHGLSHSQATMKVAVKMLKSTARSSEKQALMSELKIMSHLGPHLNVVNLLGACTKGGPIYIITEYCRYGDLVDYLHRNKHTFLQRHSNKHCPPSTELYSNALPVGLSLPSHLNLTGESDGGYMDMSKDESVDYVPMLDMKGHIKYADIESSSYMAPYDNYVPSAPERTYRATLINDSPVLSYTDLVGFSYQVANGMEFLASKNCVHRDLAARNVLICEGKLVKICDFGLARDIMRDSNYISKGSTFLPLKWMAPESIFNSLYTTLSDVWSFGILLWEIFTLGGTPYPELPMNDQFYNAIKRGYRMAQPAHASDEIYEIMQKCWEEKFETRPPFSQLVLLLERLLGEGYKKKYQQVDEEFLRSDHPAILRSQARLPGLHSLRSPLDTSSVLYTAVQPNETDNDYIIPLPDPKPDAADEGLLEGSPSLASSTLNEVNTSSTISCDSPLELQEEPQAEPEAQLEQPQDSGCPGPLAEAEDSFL
# Description: as §1
# Cell Culture and Preparation: Cells are cultured according to ATCC procedure (5) with the addition of the antibiotic penicillin-streptomycin. If working from frozen, cells should be thawed according to ATCC procedure. Depending on the cell density of frozen vial, cells will need time to recover from thaw. An 80% confluent T75 flask should be enough for one 384 well plate.
# Stock Solutions: Rat PDGFBB. A 100 ug/mL stock is prepared by reconstituting 50 ug in 500 uL of 4 mM HCl and 0.1% BSA. It can be stored for a month at 4° C., or aliquoted out and frozen in the −20/−80° C. to avoid multiple free-thaw cycles.
# as §3
# 1× Cisbio cell lysis buffer. The cell lysis buffer is diluted 4-fold with molecular grade water. The blocking agent is then diluted 25-fold in the diluted lysis buffer.
# Antibody solutions. Equal amounts d2 and cryptate antibody are diluted 20-fold in detection buffer.
# Rat PDGFBB. A working stock of 100 ng/mL is created from the stock solution in 10% FBS culture media.
# Step 1: Plating Cells: Media from the A10 cell flask is aspirated. The cells are rinsed with PBS and then trypsinized to disperse the cell layer. The cells are then pelleted are resuspended to 1.25e5 cells/mL. […] Plates are covered and placed in the incubator (37° C. 5% CO2) overnight to allow cells to adhere.
# Step 2: Compound Dispense: Approximately 18 hours after plating, dispense 40 nL compound onto cells using Echo. Column 12 is the neutral control DMSO, column 24 is the inhibitor control 10 mM Imatinib (10 uM final assay concentration). The plate is returned to the incubator for 3 hours.
# After 10 minutes the media is removed by flicking the plate.
# Step 4: Cell lysis and antibody addition: 20 uL lysis buffer per well is added to the plate via Tempest. 5 uL antibody solution is added per well via the Tempest. The plate is placed on the shaker at 230 rpm for 1 hour at room temperature.
# Step 5: Detection: The plate is read using the HTRF module on the BMG Pherastar. Data is analyzed using Genedata Screener.
# as §2
# % Inhibition: % Inhibition=(NC−sample)/(NC−PC)*100 where NC is the mean of negative control (reactions without inhibitor), and PC is the mean of positive control (10 μM imatinib).
# IC50 values are determined from a 4-parameter fit, using the following equation: Y=Bottom+(Top−Bottom)/(1+10((Log IC50−X)*Hill slope)), where X=log10 of the compound concentration; top can be defined by PC; bottom defined by NC.
# Chain of VEGFR2, unphosphorylated (P35968 20-1356): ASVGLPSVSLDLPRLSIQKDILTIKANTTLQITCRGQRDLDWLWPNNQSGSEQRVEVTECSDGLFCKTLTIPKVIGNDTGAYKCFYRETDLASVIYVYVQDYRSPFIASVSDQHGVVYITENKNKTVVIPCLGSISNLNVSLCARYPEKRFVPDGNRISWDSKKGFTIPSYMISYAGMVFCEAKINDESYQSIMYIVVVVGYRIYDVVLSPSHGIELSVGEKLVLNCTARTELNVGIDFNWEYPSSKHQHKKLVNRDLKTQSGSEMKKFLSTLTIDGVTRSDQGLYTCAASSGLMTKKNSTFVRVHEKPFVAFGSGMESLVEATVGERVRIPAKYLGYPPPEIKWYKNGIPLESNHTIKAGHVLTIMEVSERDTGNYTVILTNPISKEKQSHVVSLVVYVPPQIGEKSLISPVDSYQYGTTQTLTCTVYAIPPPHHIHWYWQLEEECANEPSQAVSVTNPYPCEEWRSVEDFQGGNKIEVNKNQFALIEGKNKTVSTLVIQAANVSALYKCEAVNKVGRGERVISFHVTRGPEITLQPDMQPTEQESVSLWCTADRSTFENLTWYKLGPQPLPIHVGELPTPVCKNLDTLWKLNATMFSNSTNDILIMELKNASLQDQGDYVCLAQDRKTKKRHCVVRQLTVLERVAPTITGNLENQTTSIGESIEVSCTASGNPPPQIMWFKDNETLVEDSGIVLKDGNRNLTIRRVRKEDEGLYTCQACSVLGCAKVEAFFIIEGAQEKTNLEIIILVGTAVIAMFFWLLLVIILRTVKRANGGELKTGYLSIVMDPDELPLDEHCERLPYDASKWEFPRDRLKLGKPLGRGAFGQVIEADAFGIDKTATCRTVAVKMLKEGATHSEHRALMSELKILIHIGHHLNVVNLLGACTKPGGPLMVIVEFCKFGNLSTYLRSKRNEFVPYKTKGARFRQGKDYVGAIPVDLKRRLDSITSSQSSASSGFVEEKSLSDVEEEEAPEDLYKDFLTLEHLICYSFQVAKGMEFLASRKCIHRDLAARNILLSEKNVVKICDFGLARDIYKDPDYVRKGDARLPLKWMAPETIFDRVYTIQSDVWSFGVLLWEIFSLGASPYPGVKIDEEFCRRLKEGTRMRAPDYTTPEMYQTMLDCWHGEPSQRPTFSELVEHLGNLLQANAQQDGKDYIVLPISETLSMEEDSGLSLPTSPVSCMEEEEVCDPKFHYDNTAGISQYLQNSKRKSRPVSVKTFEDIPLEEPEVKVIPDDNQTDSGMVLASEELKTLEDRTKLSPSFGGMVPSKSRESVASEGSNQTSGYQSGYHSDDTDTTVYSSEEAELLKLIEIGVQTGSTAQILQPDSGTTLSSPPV
SMILES,IC50 ([3]; read-out: PDGFR Cellular IC50) [nM],IC50 [1] [nM],IC50 [2] [nM],IC50 ([3]; PDGFR Cellular IC50) [nM]
"Cc1ncc(NC(=O)CN2C[C@H](C)O[C@@H](C)C2)cc1NC(=O)c1cnn2cc(-c3ccc[nH]c3=O)sc12 (relative stereo) [Example 370, N-(5-(2-(trans-2,6-dimethylmorpholino)acetamido)-2-methylpyridin-3-yl)-2-(2-oxo-1,2-dihydropyridin-3-yl)pyrazolo[5,1-b]thiazole-7-carboxamide]",–,> 7500,1,544
"COC1CCN(CC(=O)Nc2cnc(C)c(NC(=O)c3cnn4cc(-c5cn(C)nc5C)sc34)c2)C1 (stereo not drawn) [Example 439, 2-(1,3-Dimethyl-1H-pyrazol-4-yl)-N-(5-(2-(3-methoxypyrrolidin-1-yl)acetamido)-2-methylpyridin-3-yl)pyrazolo[5,1-b]thiazole-7-carboxamide]",–,> 7500,–,12.2
"Cc1ncc(C(=O)NCCN2CC3CCC2CC3)cc1NC(=O)c1cnn2cc(-c3cnn(C)c3)sc12 [Example 1, N-(5-((2-(2-azabicyclo[2.2.2]octan-2-yl)ethyl)carb-amoyl)-2-methylpyridin-3-yl)-2-(1-methyl-1H-pyrazol-4-yl)pyrazolo[5,1-b]thiazole-7-carboxamide]",–,> 7500,0.2,33.8
"Cc1ncc(NC(=O)CN2CCC[C@H]2C)cc1NC(=O)c1cnn2cc(-c3cn(C)nc3C)sc12 [Example 440, (R)-2-(1,3-dimethyl-1H-pyrazol-4-yl)-N-(2-methyl-5-(2-(2-methylpyrrolidin-1-yl)acetamido)pyridin-3-yl)pyrazolo[5,1-b]thiazole-7-carboxamide]",–,> 7500,–,1.6
"Cc1ncc(NC(=O)CN2CCC[C@@H]2C)cc1NC(=O)c1cnn2cc(-c3cn(C)nc3C)sc12 [Example 438, (S)-2-(1,3-dimethyl-1H-pyrazol-4-yl)-N-(2-methyl-5-(2-(2-methylpyrrolidin-1-yl)acetamido)pyridin-3-yl)pyrazolo[5,1-b]thiazole-7-carboxamide]",–,> 7500,–,3.7
"COc1ncccc1-c1cn2ncc(C(=O)Nc3cc(NC(=O)CN4CC(OC)C4)cnc3C)c2s1 [Example 400, N-(5-(2-(3-methoxyazetidin-1-yl)acetamido)-2-methylpyridin-3-yl)-2-(2-methoxypyridin-3-yl)pyrazolo[5,1-b]thiazole-7-carboxamide]",–,> 7500,–,14.8

# Further lines, with some results ahead:
IC50 ([3]; read-out: PDGFR Cellular IC50) [nM],SMILES,IC50 [1] [nM],IC50 [2] [nM],IC50 ([3]; PDGFR Cellular IC50) [nM]
10.3,CCOC1CN(CC(=O)Nc2cnc(C)c(NC(=O)c3cnn4cc(-c5cccnc5OC)sc34)c2)C1 [Example 401],–,–,–
16,"COc1ncccc1-c1cn2ncc(C(=O)Nc3cc(NC(=O)CN4C[C@H](CO)O[C@@H](C)C4)cnc3C)c2s1 (stereo in doubt) [Example 381, N-(5-(2-(cis-2-(hydroxymethyl)-6-methylmorpholino)acetamido)-2-methylpyridin-3-yl)-2-(2-methoxypyridin-3-yl)pyrazolo[5,1-b]thiazole-7-carboxamide]",> 833,–,–
9.9,"COCCn1cc(-c2cn3ncc(C(=O)Nc4cc(NC(=O)CN5CC[C@@H](C)C5)cnc4C)c3s2)cn1 (single isomer, unassigned) [Example 327, (R*)-2-(1-(2-methoxyethyl)-1H-pyrazol-4-yl)-N-(2-methyl-5-(2-(3-methylpyrrolidin-1-yl)acetamido)pyridin-3-yl)pyrazolo[5,1-b]thiazole-7-carboxamide]",> 7500,–,–
7.1,"COCCn1cc(-c2cn3ncc(C(=O)Nc4cc(NC(=O)CN5CC[C@H](C)C5)cnc4C)c3s2)cn1 (single isomer, unassigned) [Example 328, (S*)-2-(1-(2-methoxyethyl)-1H-pyrazol-4-yl)-N-(2-methyl-5-(2-(3-methylpyrrolidin-1-yl)acetamido)pyridin-3-yl)pyrazolo[5,1-b]thiazole-7-carboxamide]",> 7500,–,–
